Results on 2 compounds are retold here after the NIST ThermoML archive (doi:10.1016/j.jct.2016.06.031).

For data set [1] the following is noted: Liquid; for mass density: 101.33 kPa, Vibrating tube method; for vapor or sublimation pressure: Closed cell (Static) method.
Data set [2] can be described thus: refractive index (Na D-line) (dimensionless). The settings on record: 101.33 kPa, Liquid, Standard Abbe refractometry.

± gives the expanded uncertainty stated by the source.

For the compound `CCCCCCC` [heptane], the mass density (usually the mass of a sample divided by its volume) is recorded as 683.8 ± 0.9 kg/m3 in data set [1] (293.15 K); 681.6 ± 0.9 kg/m3 in data set [1] (295.15 K); 679.9 ± 0.9 kg/m3 in data set [1] (297.15 K); 679.1 ± 0.9 kg/m3 in data set [1] (298.15 K); 677.1 ± 0.9 kg/m3 in data set [1] (300.4 K). The refractive index (commonly a measure of how strongly the sample bends light) is listed as 1.3878 ± 0.0007 in data set [2] (293.15 K) and 1.3852 ± 0.0007 in data set [2] (298.15 K).

For the compound `FC(F)(F)C(F)(F)F` [hexafluoroethane], the vapor or sublimation pressure (usually the pressure of vapour in equilibrium with the condensed phase) in data set [1] (273.06 K) amounted to 1839 ± 6 kPa; in data set [1] (278.07 K), 2100 ± 6 kPa; in data set [1] (283.07 K), 2388 ± 7 kPa; in data set [1] (288.07 K) it was 2701 ± 7 kPa; in data set [1] (292.07 K), 2972 ± 8 kPa.
